This is an account of results in ChEMBL document CHEMBL4371007, “Biased Ligands of G Protein-Coupled Receptors (GPCRs): Structure-Functional Selectivity Relationships (SFSRs) and Therapeutic Potential” (J Med Chem, 2018).

In assay [1] the target is T1, Endothelin receptor type B (Homo sapiens) (UniProt P24530).
T1 sequence (whole entry): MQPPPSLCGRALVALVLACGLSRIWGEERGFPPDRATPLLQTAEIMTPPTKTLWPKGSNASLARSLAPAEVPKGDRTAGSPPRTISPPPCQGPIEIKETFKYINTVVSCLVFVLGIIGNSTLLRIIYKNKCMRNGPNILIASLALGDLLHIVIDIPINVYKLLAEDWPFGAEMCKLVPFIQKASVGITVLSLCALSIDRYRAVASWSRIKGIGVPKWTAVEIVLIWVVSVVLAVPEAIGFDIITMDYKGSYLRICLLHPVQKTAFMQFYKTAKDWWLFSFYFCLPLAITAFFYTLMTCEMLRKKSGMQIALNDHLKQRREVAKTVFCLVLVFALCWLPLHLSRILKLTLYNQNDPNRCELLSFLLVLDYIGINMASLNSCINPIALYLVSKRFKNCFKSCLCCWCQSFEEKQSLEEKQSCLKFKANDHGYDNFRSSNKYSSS

For assay [2], the target named is T2, Endothelin-1 receptor (Homo sapiens) (UniProt P25101).
T2 sequence (whole entry): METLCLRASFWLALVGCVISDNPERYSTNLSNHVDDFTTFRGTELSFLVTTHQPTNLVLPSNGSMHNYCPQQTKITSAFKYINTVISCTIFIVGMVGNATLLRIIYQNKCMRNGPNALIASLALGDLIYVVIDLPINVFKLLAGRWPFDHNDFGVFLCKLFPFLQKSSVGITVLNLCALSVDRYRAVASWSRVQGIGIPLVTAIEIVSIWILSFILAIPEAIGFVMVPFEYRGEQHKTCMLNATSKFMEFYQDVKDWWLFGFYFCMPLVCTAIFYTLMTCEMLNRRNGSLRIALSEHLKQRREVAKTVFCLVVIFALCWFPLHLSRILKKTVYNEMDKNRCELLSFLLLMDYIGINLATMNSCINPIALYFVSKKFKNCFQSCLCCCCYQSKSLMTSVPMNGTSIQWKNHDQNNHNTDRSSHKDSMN

Assay [3] addresses T3, Type-1 angiotensin II receptor (Homo sapiens, UniProt P30556).
T3 sequence (P30556 whole entry): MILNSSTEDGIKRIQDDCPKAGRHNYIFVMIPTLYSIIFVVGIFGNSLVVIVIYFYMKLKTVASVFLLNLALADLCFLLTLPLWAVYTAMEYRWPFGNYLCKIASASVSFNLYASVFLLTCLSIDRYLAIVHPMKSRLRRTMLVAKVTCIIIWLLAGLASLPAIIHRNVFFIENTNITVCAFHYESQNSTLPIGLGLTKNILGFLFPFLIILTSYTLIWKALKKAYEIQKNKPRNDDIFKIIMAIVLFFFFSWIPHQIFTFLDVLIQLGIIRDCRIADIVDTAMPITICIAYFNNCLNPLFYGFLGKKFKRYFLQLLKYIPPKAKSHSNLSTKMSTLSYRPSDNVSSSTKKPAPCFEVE
In words: Agonist activity at human AT1 receptor assessed as increase in beta-arrestin recruitment by chemiluminescent assay.

For assay [4], the target named is T4, Apelin receptor (Homo sapiens, UniProt P35414).
T4 sequence (P35414 whole entry): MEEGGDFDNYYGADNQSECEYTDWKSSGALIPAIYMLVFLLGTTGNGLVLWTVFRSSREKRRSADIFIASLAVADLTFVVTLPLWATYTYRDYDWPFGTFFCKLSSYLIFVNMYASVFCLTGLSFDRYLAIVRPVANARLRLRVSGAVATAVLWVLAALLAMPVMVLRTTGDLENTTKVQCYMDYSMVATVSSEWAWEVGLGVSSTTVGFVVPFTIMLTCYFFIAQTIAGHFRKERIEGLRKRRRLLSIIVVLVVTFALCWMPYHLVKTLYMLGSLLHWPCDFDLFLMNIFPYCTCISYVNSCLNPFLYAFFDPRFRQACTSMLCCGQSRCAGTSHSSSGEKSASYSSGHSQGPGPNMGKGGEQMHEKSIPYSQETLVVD
In words: Agonist activity at human APJ receptor by saphenous vein contraction assay.

The target of assay [5] is T4, Apelin receptor. In words: Agonist activity at human APJ receptor assessed as increase in beta-arrestin recruitment.
The target of assay [6] is T4, Apelin receptor. In words: Induction of human APJ receptor internalization by cell based assay.
The target of assay [7] is Metabotropic glutamate receptor 5 (Homo sapiens, UniProt P41594). In words: Agonist activity at mGlu5 receptor (unknown origin) expressed in CHO cells assessed as increase in Gq-mediated PI hydrolysis after 45 mins by yttrium scintillation proximity assay. The format is cell-based.
Sequence of Metabotropic glutamate receptor 5 (Homo sapiens, UniProt P41594) (P41594 whole entry): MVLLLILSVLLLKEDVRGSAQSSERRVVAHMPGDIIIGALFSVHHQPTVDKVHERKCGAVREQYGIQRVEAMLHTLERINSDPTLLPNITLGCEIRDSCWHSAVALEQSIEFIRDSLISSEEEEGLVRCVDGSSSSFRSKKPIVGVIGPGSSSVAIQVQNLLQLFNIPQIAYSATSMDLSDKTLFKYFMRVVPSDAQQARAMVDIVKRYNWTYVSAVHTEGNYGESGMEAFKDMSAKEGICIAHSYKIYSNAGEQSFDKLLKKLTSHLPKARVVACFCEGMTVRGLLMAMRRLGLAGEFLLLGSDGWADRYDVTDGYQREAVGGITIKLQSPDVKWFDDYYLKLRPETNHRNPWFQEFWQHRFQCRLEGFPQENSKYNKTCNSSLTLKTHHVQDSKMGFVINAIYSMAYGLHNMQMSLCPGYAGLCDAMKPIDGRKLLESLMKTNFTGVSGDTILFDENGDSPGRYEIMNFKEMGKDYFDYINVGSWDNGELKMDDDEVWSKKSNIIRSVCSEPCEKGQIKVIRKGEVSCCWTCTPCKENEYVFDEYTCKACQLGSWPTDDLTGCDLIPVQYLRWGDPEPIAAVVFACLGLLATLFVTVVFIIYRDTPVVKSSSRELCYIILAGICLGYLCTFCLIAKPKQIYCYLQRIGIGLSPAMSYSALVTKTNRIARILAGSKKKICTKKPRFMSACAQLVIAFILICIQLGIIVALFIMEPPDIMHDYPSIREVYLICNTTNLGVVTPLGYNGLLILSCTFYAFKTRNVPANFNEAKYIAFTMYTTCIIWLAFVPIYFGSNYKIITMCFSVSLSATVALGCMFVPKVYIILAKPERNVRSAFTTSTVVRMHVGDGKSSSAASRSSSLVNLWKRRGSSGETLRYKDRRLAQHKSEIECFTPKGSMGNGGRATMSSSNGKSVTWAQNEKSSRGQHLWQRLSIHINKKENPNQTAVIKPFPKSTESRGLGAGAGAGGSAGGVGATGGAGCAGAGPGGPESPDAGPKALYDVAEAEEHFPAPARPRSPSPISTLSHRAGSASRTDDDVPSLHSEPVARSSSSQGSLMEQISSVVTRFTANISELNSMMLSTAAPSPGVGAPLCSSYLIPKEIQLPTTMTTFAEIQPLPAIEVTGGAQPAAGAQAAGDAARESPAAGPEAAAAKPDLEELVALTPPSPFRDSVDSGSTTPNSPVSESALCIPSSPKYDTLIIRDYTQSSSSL
Assay [8] concerns the target T5, Metabotropic glutamate receptor 5 (Rattus norvegicus, UniProt P31424). In words: Positive allosteric modulation of rat mGlu5 receptor expressed in HEK293 cells assessed as increase in calcium mobilization. The format is functional, cell-based.
The target in assay [9] is T6, Adenosine receptor A1 (Homo sapiens) (UniProt P30542).
T6 sequence (whole entry): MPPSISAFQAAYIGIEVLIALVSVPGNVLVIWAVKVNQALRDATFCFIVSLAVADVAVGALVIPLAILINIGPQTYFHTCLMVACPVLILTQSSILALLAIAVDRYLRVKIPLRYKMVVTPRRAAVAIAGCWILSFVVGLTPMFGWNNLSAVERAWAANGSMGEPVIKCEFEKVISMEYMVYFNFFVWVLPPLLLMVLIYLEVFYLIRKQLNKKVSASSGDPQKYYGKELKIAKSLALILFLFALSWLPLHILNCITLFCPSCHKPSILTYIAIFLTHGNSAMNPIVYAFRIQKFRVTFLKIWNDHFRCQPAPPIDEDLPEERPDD
In words: Agonist activity at adenosine A1 receptor (unknown origin) expressed in FlpIn-CHO cells assessed as increase in ERK1/2 phosphorylation. The format is cell-based.

Assay [10] concerns the target T6, Adenosine receptor A1 (Homo sapiens).
The target in assay [11] is T7, D(2) dopamine receptor (Homo sapiens, UniProt P14416). In words: Agonist activity at dopamine D2 receptor (unknown origin) expressed in HEK293T cells co-expressing luciferase based cAMP biosensor assessed as inhibition of forskolin-mediated cAMP accumulation after 15 mins by microbeta luminescence counting assay. The format is functional, cell-based.
T7 sequence (P14416 whole entry): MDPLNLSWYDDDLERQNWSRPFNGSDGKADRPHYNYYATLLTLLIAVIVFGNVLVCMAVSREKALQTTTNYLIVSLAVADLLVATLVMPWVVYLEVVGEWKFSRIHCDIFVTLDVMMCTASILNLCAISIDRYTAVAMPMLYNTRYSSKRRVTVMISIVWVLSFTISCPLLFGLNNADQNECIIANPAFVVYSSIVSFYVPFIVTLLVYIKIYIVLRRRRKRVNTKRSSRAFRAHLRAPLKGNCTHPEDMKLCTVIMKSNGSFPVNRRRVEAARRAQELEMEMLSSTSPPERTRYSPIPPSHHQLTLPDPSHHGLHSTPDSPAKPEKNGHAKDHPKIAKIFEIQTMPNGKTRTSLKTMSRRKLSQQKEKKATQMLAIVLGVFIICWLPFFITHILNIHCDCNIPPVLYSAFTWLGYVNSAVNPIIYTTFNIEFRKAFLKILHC
Assay [12] deals with T7, D(2) dopamine receptor. In words: Agonist activity at dopamine D2 receptor (unknown origin) expressed in HEK293T cells co-expressing luciferase based cAMP biosensor assessed as inhibition of forskolin-mediated cAMP accumulation at 1 uM after 15 mins by microbeta luminescence counting assay relative to control. It is filed as functional, cell-based.
The target of assay [13] is T7, D(2) dopamine receptor. In words: Agonist activity at human dopamine D2long receptor (unknown origin) expressed in HEK293T cells co-expressing TEV fused-beta-Arrestin2 and GRK2 assessed as increase in beta-arrestin-2 recruitment after overnight incubation by Tango assay. It is filed as cell-based.
The target of assay [14] is T7, D(2) dopamine receptor. In words: Agonist activity at human dopamine D2long receptor (unknown origin) expressed in HEK293T cells co-expressing TEV fused-beta-Arrestin2 and GRK2 assessed as increase in beta-arrestin-2 recruitment at 1 uM after overnight incubation by Tango assay relative to control. It is filed as cell-based.
Assay [15] deals with T7, D(2) dopamine receptor. In words: Ratio of EC50 for dopamine D2 receptor (unknown origin) expressed in HEK293T cells co-expressing luciferase based cAMP biosensor assessed as inhibition of forskolin-mediated cAMP accumulation to EC50 for human dopamine D2long receptor (unknown origin) expressed in HEK293T cells co-expressing TEV fused-beta-Arrestin2 and GRK2 assessed as increase in beta-arrestin-2 recruitment. It is filed as functional, cell-based.

Assay [16] deals with T8, Kappa-type opioid receptor (Rattus norvegicus, UniProt P34975). In words: Agonist activity at GFP-tagged rat kappa opioid receptor expressed in HEK293 cells assessed as increase in ERK1/2 phosphorylation after 5 mins by Western blot analysis. It is filed as cell-based.
T8 sequence (P34975 whole entry): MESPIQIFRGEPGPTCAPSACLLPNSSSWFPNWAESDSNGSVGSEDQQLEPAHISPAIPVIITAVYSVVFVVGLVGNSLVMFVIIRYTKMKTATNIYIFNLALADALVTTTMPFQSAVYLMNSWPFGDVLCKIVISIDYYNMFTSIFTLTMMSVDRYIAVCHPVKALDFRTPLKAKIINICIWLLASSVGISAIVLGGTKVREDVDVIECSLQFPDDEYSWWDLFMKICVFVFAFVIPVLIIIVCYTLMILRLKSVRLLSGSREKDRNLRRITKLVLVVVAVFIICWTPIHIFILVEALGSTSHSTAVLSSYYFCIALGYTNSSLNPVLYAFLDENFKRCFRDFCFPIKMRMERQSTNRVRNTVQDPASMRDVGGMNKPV
Assay [17] addresses T8, Kappa-type opioid receptor. In words: Agonist activity at GFP-tagged rat kappa opioid receptor expressed in HEK293 cells assessed as increase in beta-arrestin mediated p38 phosphorylation after 5 mins by Western blot analysis. The format is cell-based.
Assay [18] addresses T5, Metabotropic glutamate receptor 5. In words: Positive allosteric modulation of rat mGlu5 receptor expressed in HEK293 cells assessed as increase in calcium mobilization after 60 secs in presence of glutamate by Fluo-4 AM dye-based fluorescence assay. The format is functional, cell-based.
The target in assay [19] is T4, Apelin receptor. In words: Agonist activity at GFP10 tagged human APJ receptor expressed in HEK293 cells harboring Rluc2-beta-arrestin1 assessed as increase in beta-arrestin1 recruitment after 30 mins by BRET-based luciferase reporter gene assay. It is filed as cell-based.
The target of assay [20] is T4, Apelin receptor. In words: Agonist activity at human APJ receptor expressed in HEK293 cells harboring Rluc2-beta-arrestin2 assessed as increase in beta-arrestin2 recruitment after 30 mins by BRET-based luciferase reporter gene assay. It is filed as cell-based.
Assay [21] concerns the target T4, Apelin receptor. In words: Agonist activity at GFP10 tagged human APJ receptor expressed in HEK293 cells harboring Rluc2-Galphai1/GFP10-Ggamma/Gbeta1 after 5 mins by BRET assay. The format is cell-based.
The target of assay [22] is T4, Apelin receptor. In words: Agonist activity at GFP10 tagged human APJ receptor expressed in HEK293 cells harboring Rluc2-Galpha0A/GFP10-Ggamma/Gbeta1 after 5 mins by BRET assay. The format is cell-based.
For the next assay, the system named is CHO. In words: Cytoprotection against glutamate-induced cell death in CHO cells assessed as increase in cell viability by colorimetric assay. The format is functional, cell-based. The following applies: Cricetulus griseus.

Where a SMILES comes first, the peptide text is derived from it. Bridges are numbered along the chain shown (N, C = ends). [ ]: non-standard residue; d: D form. The star is where a group is joined. X1 = C[C@@H](NC(=O)[C@@H]1CCCN1C(=O)[C@H](Cc1cnc[nH]1)NC[C@H](CCCCN)N*)C(=O)O; Sar = CNCC(=O)O

T5 sequence (P31424 whole entry): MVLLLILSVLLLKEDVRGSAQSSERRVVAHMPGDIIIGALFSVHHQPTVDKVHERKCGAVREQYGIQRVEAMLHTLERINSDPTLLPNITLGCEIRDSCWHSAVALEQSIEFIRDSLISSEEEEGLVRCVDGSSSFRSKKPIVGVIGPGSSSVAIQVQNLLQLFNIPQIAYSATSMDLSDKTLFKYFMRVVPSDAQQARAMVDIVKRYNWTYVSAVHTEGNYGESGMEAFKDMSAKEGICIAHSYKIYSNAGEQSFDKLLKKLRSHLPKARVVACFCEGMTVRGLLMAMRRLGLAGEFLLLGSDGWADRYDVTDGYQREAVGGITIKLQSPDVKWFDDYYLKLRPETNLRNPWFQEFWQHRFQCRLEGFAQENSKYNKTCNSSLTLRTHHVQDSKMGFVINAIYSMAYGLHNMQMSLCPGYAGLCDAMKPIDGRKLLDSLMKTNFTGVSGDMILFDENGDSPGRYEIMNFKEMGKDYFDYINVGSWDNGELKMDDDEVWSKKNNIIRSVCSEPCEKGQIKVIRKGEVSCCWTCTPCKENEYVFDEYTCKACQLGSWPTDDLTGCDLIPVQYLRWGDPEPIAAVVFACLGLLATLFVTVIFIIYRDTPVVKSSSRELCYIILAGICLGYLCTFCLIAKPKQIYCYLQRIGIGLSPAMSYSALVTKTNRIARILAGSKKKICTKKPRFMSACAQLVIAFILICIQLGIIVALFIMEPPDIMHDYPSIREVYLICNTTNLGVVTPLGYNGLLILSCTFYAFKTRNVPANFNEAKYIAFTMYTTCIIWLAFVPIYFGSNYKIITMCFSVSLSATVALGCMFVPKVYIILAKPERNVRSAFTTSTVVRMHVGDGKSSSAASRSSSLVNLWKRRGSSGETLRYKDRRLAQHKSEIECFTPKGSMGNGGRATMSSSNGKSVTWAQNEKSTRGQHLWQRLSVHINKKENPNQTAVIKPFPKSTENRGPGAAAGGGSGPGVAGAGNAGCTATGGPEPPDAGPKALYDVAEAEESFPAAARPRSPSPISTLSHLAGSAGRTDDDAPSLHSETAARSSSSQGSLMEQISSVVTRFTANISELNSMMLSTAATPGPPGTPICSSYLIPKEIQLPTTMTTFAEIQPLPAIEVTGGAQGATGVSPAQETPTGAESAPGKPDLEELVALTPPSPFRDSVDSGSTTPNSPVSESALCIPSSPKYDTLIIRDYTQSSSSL

Consider `COc1ccccc1Oc1c(NS(=O)(=O)c2ccc(C(C)(C)C)cc2)nc(-c2ncccn2)nc1OCCO`, for which the results for the pKb in assay [1] and in assay [2] were 6.15 and 8.01, respectively.
Regarding `CC[C@H](C)[C@H](NC(=O)[C@@H](NC(=O)[C@H](CCCNC(=N)N)NC(=O)CNC)C(C)C)C(=O)N[C@@H](CCCCN)CN[C@@H](Cc1cnc[nH]1)C(=O)N1CCC[C@H]1C(=O)N[C@H](C)C(=O)O` (H-[Sar]RVI-X1), the EC50 in assay [3] is 17 nM.
As to `CSCC[C@H](NC(=O)[C@@H]1CCCN1C(=O)CNC(=O)[C@H](CCCCN)NC(=O)[C@H](Cc1cnc[nH]1)NC(=O)[C@@H]1CSSC[C@H](N)C(=O)N[C@@H](CCCNC(=N)N)C(=O)N2CCC[C@H]2C(=O)N[C@@H](CCCNC(=N)N)C(=O)N[C@@H](CC(C)C)C(=O)N1)C(=O)N1CCC[C@H]1C(=O)N[C@@H](Cc1ccccc1)C(=O)O` (H-CRPRLCHKGPMPF-OH; disulfide 1-6), the EC50 is 0.288 nM on Apelin receptor [4], 2140 nM at Apelin receptor [5] and 692 nM at Apelin receptor [6].
Turning to `N[C@@H](Cn1oc(=O)[nH]c1=O)C(=O)O` [QUISQUALATE], the EC50 in assay [7] stood at 630 nM.
In the case of `O=C(c1ccc(F)cc1)N1CCc2nc(COc3ccccc3)oc2C1`, the EC50 in assay [8] amounted to 235 nM.
Regarding `C[C@H](Cc1ccccc1)Nc1ncnc2c1ncn2[C@@H]1O[C@H](CO)[C@@H](O)[C@H]1O`, the log(Tau/KA) was 9.5 in assay [9] and 8.96 in [10].
Turning to `Cc1cc2c(N3CCN(CCCCOc4ccc5c(c4)NC(=O)CC5)CC3)cccc2n1C`, the EC50 worked out at 23 nM at D(2) dopamine receptor [11] and 2.9 nM at D(2) dopamine receptor [13]. Further, the Emax at D(2) dopamine receptor [12] is 60%; on D(2) dopamine receptor [14], 78%. For the same compound, the Ratio EC50 at D(2) dopamine receptor [15] was determined as 20.
With `CN(C(=O)/C=C/c1ccoc1)[C@@H]1CC[C@@]2(O)[C@H]3Cc4ccc(O)c5c4[C@@]2(CCN3CC2CC2)[C@H]1O5` [NALFURAFINE], the figures for the EC50 in assay [16] and in [17] were 0.5 nM and 5.2 nM, respectively.
As to `O=C(Nc1ccc(Cl)cc1CN1C(=O)c2cccc(F)c2C1=O)c1ccccn1`, in assay [18], the EC50 turned out to be 214 nM.
For `CC(C)C[C@H](NC(=O)[C@H](CCCCN)NC(=O)[C@@H]1CCCN1C(=O)[C@@H](N)CCCCN)C(=O)N[C@@H](CO)C(=O)N[C@@H]1CC=CCC[C@@H](C(=O)N[C@@H](Cc2ccc(OCc3ccccc3)cc2)C(=O)O)NC(=O)[C@@H]2CCCN2C(=O)CNC(=O)[C@H](CCCCN)NC1=O`, the EC50 at Apelin receptor [19] was more than 10000 nM; at Apelin receptor [20] it was more than 10000 nM; on Apelin receptor [21], 56 nM; on Apelin receptor [22], 50 nM.
For `N[C@@H](CCC(=O)O)C(=O)O` [GLUTAMIC ACID], in the assay on CHO, the EC50 was 153000 nM.
